Reference: ChEMBL document CHEMBL4507281, “Data for DCP probe BI-4394” (2021)

How the values were obtained:
[1] = system: Tyrosine-protein kinase ABL1 (Homo sapiens), P00519 [E255K]; settings: Compound concentration 100.0 nM
[2] = molecular target: Activin receptor type-1 (Homo sapiens) (UniProt Q04771); settings: Compound concentration 100.0 nM
[3] = molecular target: Citron Rho-interacting kinase (Homo sapiens) (UniProt O14578); settings: Compound concentration 100.0 nM
[4] = molecular target: Death-associated protein kinase 1 (Homo sapiens) (UniProt P53355); settings: Compound concentration 100.0 nM
[5] = molecular target: Ephrin type-A receptor 5 (Homo sapiens) (UniProt P54756); settings: Compound concentration 100.0 nM
[6] = molecular target: Vascular endothelial growth factor receptor 1 (Homo sapiens) (UniProt P17948); settings: Compound concentration 100.0 nM
[7] = molecular target: Beta-adrenergic receptor kinase 1 (Homo sapiens) (UniProt P25098); settings: Compound concentration 100.0 nM
[8] = molecular target: Rhodopsin kinase GRK7 (Homo sapiens) (UniProt Q8WTQ7); settings: Compound concentration 100.0 nM
[9] = molecular target: Mitogen-activated protein kinase kinase kinase kinase 2 (Homo sapiens) (UniProt Q12851); settings: Compound concentration 100.0 nM
[10] = molecular target: Serine/threonine-protein kinase MARK1 (Homo sapiens) (UniProt Q9P0L2); settings: Compound concentration 100.0 nM
[11] = molecular target: MAP kinase-interacting serine/threonine-protein kinase 2 (Homo sapiens) (UniProt Q9HBH9); settings: Compound concentration 100.0 nM
[12] = molecular target: Serine/threonine-protein kinase 4 (Homo sapiens) (UniProt Q13043); settings: Compound concentration 100.0 nM
[13] = molecular target: Myosin light chain kinase, smooth muscle (Homo sapiens) (UniProt Q15746); settings: Compound concentration 100.0 nM
[14] = molecular target: Serine/threonine-protein kinase Nek11 (Homo sapiens) (UniProt Q8NG66); settings: Compound concentration 100.0 nM
[15] = molecular target: Serine/threonine-protein kinase Nek6 (Homo sapiens) (UniProt Q9HC98); settings: Compound concentration 100.0 nM
[16] = molecular target: Serine/threonine-protein kinase NIM1 (Homo sapiens) (UniProt Q8IY84); settings: Compound concentration 100.0 nM
[17] = molecular target: Serine/threonine-protein kinase PAK 4 (Homo sapiens) (UniProt O96013); settings: Compound concentration 100.0 nM
[18] = molecular target: T1, Phosphorylase b kinase regulatory subunit alpha, liver isoform (Homo sapiens) (UniProt P46019); settings: Compound concentration 100.0 nM
T1 sequence (whole entry): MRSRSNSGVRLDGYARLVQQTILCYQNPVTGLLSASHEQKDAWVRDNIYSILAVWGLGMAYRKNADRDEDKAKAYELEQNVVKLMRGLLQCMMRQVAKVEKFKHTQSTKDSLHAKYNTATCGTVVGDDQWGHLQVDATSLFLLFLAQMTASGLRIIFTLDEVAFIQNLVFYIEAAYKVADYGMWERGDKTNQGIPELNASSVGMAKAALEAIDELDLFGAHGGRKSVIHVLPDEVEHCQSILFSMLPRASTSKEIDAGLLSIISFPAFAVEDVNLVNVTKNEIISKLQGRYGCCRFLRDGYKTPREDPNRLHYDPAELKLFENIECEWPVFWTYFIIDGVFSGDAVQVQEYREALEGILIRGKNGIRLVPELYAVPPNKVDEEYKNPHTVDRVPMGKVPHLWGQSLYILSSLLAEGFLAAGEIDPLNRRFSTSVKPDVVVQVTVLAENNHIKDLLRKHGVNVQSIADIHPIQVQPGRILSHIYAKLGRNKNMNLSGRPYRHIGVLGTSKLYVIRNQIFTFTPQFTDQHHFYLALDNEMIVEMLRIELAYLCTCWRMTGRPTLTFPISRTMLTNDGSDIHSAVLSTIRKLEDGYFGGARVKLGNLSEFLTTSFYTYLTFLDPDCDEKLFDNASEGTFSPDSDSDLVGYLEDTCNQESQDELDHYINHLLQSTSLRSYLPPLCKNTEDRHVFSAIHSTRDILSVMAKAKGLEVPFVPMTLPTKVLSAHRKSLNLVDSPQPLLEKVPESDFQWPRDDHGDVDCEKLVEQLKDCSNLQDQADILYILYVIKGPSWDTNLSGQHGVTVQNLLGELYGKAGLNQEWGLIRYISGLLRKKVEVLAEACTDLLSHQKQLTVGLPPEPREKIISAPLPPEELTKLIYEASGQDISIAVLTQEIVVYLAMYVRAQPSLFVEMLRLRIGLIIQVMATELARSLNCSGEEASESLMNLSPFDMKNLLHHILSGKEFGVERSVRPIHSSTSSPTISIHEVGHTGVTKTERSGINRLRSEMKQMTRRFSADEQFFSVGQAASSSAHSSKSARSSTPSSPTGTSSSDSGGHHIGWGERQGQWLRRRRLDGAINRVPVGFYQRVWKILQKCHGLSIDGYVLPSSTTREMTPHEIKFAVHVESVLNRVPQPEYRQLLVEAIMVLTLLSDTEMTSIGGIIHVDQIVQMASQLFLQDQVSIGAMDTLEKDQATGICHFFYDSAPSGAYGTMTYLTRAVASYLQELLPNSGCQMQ

[19] = system: Phosphatidylinositol 4,5-bisphosphate 3-kinase catalytic subunit alpha isoform (Homo sapiens), P42336 [E542K]; settings: Compound concentration 100.0 nM
[20] = system: Phosphatidylinositol 4,5-bisphosphate 3-kinase catalytic subunit alpha isoform (Homo sapiens), P42336 [Q546K]; settings: Compound concentration 100.0 nM
[21] = molecular target: Protein kinase C iota type (Homo sapiens) (UniProt P41743); settings: Compound concentration 100.0 nM
[22] = molecular target: Receptor-interacting serine/threonine-protein kinase 4 (Homo sapiens) (UniProt P57078); settings: Compound concentration 100.0 nM
[23] = molecular target: Ribosomal protein S6 kinase alpha-4 (Homo sapiens) (UniProt O75676); settings: Compound concentration 100.0 nM
[24] = molecular target: Ribosomal protein S6 kinase alpha-3 (Homo sapiens) (UniProt P51812); settings: Compound concentration 100.0 nM
[25] = molecular target: Serine/threonine-protein kinase TAO1 (Homo sapiens) (UniProt Q7L7X3); settings: Compound concentration 100.0 nM
[26] = molecular target: Dual specificity testis-specific protein kinase 1 (Homo sapiens) (UniProt Q15569); settings: Compound concentration 100.0 nM
[27] = molecular target: 5-hydroxytryptamine receptor 1D (Homo sapiens) (UniProt P28221); settings: Compound concentration 10.0 uM
[28] = molecular target: 5-hydroxytryptamine receptor 1E (Homo sapiens) (UniProt P28566); settings: Compound concentration 10.0 uM

Phosphatidylinositol 4,5-bisphosphate 3-kinase catalytic subunit alpha isoform (Homo sapiens), P42336 [Q546K], sequence (P42336 whole entry Q546K, canonical isoform): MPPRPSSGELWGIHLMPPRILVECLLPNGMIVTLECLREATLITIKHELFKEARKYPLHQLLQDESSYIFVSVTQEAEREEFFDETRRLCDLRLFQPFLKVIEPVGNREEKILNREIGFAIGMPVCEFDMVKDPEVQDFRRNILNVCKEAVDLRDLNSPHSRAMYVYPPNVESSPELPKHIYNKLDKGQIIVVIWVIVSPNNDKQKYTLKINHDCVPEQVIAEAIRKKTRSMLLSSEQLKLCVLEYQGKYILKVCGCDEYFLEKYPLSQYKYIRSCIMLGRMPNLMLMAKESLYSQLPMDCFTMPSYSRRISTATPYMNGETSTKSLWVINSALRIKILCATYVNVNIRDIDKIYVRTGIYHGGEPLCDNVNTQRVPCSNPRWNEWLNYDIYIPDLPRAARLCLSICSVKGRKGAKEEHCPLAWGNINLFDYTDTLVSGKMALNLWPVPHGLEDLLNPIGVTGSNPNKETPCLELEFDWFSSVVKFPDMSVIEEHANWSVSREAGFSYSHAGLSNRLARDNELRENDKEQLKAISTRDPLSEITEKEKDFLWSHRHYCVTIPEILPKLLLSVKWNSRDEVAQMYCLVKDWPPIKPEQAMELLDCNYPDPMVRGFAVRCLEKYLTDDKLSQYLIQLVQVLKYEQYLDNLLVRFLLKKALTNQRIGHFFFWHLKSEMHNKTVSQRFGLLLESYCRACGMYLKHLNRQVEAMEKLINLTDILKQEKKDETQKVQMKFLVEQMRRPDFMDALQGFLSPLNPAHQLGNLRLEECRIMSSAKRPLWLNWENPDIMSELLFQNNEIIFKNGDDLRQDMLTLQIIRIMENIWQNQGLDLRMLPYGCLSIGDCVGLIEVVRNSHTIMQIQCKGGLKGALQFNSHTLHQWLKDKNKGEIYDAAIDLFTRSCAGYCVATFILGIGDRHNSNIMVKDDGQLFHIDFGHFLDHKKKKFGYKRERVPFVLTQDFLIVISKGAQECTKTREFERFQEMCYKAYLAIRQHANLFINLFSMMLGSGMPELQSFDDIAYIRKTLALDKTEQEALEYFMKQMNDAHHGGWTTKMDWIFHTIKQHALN
Vascular endothelial growth factor receptor 1 (Homo sapiens), sequence (P17948 whole entry): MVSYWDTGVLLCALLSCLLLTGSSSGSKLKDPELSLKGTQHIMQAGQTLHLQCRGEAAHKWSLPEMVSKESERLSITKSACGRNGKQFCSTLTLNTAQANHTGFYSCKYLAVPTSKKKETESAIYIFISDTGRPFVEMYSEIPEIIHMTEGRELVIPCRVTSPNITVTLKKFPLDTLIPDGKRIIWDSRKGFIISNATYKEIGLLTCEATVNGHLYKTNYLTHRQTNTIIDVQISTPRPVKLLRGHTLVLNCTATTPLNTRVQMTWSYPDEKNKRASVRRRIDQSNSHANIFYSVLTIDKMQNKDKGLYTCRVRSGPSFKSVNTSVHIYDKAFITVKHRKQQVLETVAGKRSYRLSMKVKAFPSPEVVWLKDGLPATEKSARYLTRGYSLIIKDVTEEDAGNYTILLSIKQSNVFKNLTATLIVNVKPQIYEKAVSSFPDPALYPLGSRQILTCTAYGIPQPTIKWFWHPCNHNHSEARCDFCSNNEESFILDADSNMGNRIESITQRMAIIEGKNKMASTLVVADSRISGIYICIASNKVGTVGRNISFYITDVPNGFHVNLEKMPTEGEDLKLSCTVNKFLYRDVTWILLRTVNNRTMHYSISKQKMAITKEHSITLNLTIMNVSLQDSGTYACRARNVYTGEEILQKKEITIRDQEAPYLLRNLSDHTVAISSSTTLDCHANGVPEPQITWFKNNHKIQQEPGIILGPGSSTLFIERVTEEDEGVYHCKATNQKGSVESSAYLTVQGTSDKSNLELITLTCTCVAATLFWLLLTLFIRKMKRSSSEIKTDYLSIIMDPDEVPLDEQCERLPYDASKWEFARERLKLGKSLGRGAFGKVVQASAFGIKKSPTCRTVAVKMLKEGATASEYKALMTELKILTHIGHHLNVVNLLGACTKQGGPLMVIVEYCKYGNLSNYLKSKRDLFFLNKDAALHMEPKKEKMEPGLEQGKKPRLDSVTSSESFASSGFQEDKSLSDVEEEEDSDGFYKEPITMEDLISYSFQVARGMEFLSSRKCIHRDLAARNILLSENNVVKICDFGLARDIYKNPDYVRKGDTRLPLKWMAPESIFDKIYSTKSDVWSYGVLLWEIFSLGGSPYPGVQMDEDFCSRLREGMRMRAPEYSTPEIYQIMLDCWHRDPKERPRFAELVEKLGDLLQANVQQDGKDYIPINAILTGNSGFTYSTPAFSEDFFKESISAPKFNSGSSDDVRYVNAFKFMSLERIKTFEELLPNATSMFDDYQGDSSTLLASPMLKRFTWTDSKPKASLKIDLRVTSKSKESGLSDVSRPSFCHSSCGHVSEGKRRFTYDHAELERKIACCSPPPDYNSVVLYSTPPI
Ribosomal protein S6 kinase alpha-3 (Homo sapiens), sequence (P51812 whole entry): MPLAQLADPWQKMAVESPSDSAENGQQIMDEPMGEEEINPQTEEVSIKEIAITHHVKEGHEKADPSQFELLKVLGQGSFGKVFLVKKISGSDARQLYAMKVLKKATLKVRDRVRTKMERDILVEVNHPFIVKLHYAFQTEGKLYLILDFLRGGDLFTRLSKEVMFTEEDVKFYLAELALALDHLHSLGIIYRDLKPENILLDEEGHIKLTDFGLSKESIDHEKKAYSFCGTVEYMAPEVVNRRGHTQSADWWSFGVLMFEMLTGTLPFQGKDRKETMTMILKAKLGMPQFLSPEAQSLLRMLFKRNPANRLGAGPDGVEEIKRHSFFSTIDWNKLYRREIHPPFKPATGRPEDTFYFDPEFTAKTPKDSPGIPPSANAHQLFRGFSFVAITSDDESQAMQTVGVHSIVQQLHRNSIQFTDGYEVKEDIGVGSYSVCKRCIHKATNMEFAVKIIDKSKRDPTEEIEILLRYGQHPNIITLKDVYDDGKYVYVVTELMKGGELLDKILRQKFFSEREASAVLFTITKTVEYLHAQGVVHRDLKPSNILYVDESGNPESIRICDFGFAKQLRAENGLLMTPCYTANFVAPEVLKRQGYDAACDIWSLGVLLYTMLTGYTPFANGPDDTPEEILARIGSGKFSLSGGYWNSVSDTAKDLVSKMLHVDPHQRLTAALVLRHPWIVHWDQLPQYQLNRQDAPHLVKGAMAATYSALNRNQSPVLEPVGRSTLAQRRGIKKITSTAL
Rhodopsin kinase GRK7 (Homo sapiens), sequence (Q8WTQ7 whole entry): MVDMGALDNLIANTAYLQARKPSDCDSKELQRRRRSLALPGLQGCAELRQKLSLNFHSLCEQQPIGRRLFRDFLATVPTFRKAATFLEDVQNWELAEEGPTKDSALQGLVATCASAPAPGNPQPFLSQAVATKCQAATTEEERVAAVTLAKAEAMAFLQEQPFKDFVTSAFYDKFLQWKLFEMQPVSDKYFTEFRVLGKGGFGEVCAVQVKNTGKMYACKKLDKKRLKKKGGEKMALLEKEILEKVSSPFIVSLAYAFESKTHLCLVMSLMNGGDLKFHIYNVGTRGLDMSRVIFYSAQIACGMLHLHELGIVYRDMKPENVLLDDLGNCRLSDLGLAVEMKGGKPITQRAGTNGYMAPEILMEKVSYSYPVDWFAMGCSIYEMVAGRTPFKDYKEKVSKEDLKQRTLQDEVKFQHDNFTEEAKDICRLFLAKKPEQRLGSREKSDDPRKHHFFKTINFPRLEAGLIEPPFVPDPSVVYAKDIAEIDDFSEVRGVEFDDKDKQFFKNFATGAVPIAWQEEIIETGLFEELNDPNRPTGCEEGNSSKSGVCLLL
Serine/threonine-protein kinase TAO1 (Homo sapiens), sequence (Q7L7X3 whole entry): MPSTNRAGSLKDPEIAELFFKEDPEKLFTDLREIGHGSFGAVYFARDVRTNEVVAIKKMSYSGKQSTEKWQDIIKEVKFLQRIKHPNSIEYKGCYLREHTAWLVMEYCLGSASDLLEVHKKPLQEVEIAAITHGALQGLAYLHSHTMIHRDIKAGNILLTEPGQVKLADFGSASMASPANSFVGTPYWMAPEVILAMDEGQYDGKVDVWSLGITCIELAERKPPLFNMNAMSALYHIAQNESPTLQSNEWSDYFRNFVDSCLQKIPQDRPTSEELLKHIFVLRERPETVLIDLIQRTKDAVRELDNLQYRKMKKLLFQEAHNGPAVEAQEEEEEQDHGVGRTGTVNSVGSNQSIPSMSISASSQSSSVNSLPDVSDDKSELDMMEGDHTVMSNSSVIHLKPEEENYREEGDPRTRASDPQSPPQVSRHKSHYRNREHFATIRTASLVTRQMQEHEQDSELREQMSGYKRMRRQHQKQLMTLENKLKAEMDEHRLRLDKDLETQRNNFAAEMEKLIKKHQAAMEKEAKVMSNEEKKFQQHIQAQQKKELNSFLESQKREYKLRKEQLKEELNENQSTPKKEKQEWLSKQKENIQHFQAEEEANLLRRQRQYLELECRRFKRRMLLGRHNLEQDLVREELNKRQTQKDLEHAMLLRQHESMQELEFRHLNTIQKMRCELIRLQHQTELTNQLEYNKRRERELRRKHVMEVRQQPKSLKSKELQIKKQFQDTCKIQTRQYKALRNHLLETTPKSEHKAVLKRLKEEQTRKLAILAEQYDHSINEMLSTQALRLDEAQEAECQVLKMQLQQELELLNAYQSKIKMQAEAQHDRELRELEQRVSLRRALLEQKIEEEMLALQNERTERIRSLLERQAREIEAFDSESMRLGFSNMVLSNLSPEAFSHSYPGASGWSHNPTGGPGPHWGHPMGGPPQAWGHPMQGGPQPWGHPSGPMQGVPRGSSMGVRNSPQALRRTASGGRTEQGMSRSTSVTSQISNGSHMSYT
Serine/threonine-protein kinase Nek6 (Homo sapiens), sequence (Q9HC98 whole entry): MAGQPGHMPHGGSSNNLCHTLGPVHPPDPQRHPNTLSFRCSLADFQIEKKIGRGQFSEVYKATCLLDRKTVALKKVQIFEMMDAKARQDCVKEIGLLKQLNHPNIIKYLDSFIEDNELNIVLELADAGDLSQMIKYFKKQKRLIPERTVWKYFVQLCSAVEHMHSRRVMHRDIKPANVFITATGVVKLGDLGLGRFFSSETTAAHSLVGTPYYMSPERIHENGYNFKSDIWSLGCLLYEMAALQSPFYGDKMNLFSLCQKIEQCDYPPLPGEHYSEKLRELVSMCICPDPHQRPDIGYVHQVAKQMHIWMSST
Phosphatidylinositol 4,5-bisphosphate 3-kinase catalytic subunit alpha isoform (Homo sapiens), P42336 [E542K], sequence (P42336 whole entry E542K, canonical isoform): as the sequence (P42336 whole entry Q546K, canonical isoform) above, with E542K, K546Q counted along it

Cn1nc(C(=O)NCc2ccc(C(=O)O)cc2)cc1-c1ccc2[nH]ccc2c1 [BI 4395]
inactive: residual activity [1] 65% | residual activity [2] 99% | residual activity [3] 59% | residual activity [4] 97% | residual activity [5] 92% | residual activity [6] 89% | residual activity [7] 98% | residual activity [8] 100% | residual activity [9] 85% | residual activity [10] 100% | residual activity [11] 96% | residual activity [12] 80% | residual activity [13] 62% | residual activity [14] 83% | residual activity [15] 91% | residual activity [16] 78% | residual activity [17] 86% | residual activity [18] 86% | residual activity [19] 88% | residual activity [20] 76% | residual activity [21] 80% | residual activity [22] 68% | residual activity [23] 73% | residual activity [24] 78% | residual activity [25] 91% | residual activity [26] 92% | inhibition [27] 10.1% | inhibition [28] 10.3%

CCOC(=O)c1cc2cc(-c3cc(C(=O)NCc4ccc(C(=O)O)cc4)nn3C)ccc2[nH]1 [BI 4394]
inactive: residual activity [1] 88% | residual activity [2] 84% | residual activity [3] 100% | residual activity [4] 84% | residual activity [5] 100% | residual activity [6] 97% | residual activity [7] 100% | residual activity [8] 86% | residual activity [9] 84% | residual activity [10] 76% | residual activity [11] 92% | residual activity [12] 100% | residual activity [13] 100% | residual activity [14] 77% | residual activity [15] 95% | residual activity [16] 79% | residual activity [17] 100% | residual activity [18] 100% | residual activity [19] 96% | residual activity [20] 95% | residual activity [21] 87% | residual activity [22] 82% | residual activity [23] 88% | residual activity [24] 100% | residual activity [25] 90% | residual activity [26] 97% | inhibition [27] 3.64% | inhibition [28] 6.37%
